In patent US11691962B2 (eXIthera Pharmaceuticals, Inc., priority 2018, dated 2023):

Key:
[1] = Caco-2 cell permeability assay; type: in vitro ADME, human; conditions: human, 37° C.; for Papp A→B at 60 min, 10 μM: Caco-2, apical to basolateral; for Papp B→A at 40 min, 10 μM: Caco-2, basolateral to apical
Outline: (§1)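 Caco-2 monolayers (days 21-25 post-seeding) received 10 μM compound in HBSS-MES pH 6.5 or HBSS-HEPES pH 7.4 (1% DMSO) at 37 °C, for 60 min A-B or 40 min B-A. Donor and receiver samples were quantified by HPLC-MS/MS (SRM), and Papp and recovery were calculated.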

[2] = Determination of bioavailability in a dog; type: in vivo; conditions: plasma, male beagle dogs, IV bolus 1 mg/kg vs oral gavage 5 mg/kg, AUC comparison
Protocol: The following protocol was used to estimate the bioavailability of test compounds in a dog. Test compounds were formulated in vehicles compatible with intravenous and oral dosing. Test compounds were administered to male beagle dogs via an intravenous bolus at 1 mg/kg (1 mg/mL at a dose volume of 1 mL/kg) or via oral gavage at 5 mg/kg (1 mg/mL at a dose volume of 5 mL/kg). Blood samples were collected via the contralateral (to intravenous bolus) jugular vein or via other accessible vein, at various timepoints following administration out to 24 hours post dose. Plasma samples (EDTA) were obtained by centrifugation (2200×g for 10 minutes at 5° C.) and stored frozen ([…]) until analyzed for parent compound via LC/MS/MS. Pharmacokinetic parameters were estimated from the plasma concentration time data by standard non-compartmental methods utilizing standard analysis software. By comparing the area under the curve (AUC) for IV and PO administration estimates of oral bioavailability were determined.

Caco-2 cells = experiment: Caco-2 cell permeability assay; type: in vitro ADME, human; conditions: Papp, 10 μM, 37° C.
Outline: as §1

beagle dog hepatocytes = experiment: Metabolic stability in dog hepatocytes; type: in vitro ADME; conditions: 2 μM compound
Outline: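 Pooled cryopreserved beagle hepatocytes at 500,000 cells/mL in Krebs-Henseleit buffer with 2 μM compound, 37 °C, 5% CO2, sampled out to 180 min. Acetonitrile-quenched samples analysed by LC-MS/MS; percent remaining from peak area versus time zero.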

human plasma protein = experiment: Plasma protein binding by equilibrium dialysis; type: in vitro ADME; conditions: pooled human plasma, 10 μM, 4 hours at 37° C.
Outline: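 Pooled mixed-gender human plasma spiked with compound at 10 μM was dialysed against PBS pH 7.4 for 4 h at 37°C. Both compartments were quantified by HPLC-MS/MS, and % bound was calculated from plasma vs buffer peak areas.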

| Papp A→B at 60 min, 10 μM [1] [×10⁻⁶ cm/s] | Papp B→A at 40 min, 10 μM [1] [×10⁻⁶ cm/s] | bioavailability [2] [%] | Caco-2 Permeability (A-B) (Caco-2 cells; apical to basolateral, 60 min) | Caco-2 Permeability (B-A) (Caco-2 cells; basolateral to apical, 40 min) | Dog Hepatocyte Stability (t1/2) (beagle dog hepatocytes) | PPB (%) (human plasma protein) | Compound |
| --- | --- | --- | --- | --- | --- | --- | --- |
| < 10 | 31 to 50 | > 30 | – | – | – | – | CC[C@@H](NC(=O)N1C(=O)[C@H](Cc2cc(C)nc(N)c2)[C@H]1C(=O)N(C)c1nccn1C)c1ccccc1 [Compound 1-51, (2S,3R)-3-((2-amino-6-methylpyridin-4-yl)methyl)-N2-(1-methyl-1H-imidazol-2-yl)-N1-((R)-1-phenylpropyl)-N2-methyl-4-oxoazetidine-1,2-dicarboxamide] |
| < 10 | 31 to 50 | > 30 | – | – | – | – | CC[C@@H](NC(=O)N1C(=O)[C@H](Cc2ccnc(N)c2)[C@H]1C(=O)N(C)c1ccnn1C)c1ccccc1 [Compound 1-92, (2S,3R)-3-((2-aminopyridin-4-yl)methyl)-N2-(1-methyl 1H-pyrazol-5-yl)-N1-((R)-1-phenylpropyl)-N2-methyl-4-oxoazetidine-1,2-dicarboxamide] |
| 11 to 30 | 11 to 30 | > 30 | – | – | – | – | CC[C@@H](NC(=O)N1C(=O)[C@H](Cc2ccnc(N)c2)[C@H]1C(=O)N(C)c1ccnn1C)c1cccc(Cl)c1 [Compound 1-4, (2S,3R)-3-((2-aminopyridin-4-yl)methyl)-N2-(1-methyl-1H-pyrazol-5-yl)-N1-((R)-1-(3-chlorophenyl)propyl)-N2-methyl-4-oxoazetidine-1,2-dicarboxamide] |
| < 10 | 11 to 30 | > 30 | – | – | – | – | CC[C@@H](NC(=O)N1C(=O)[C@H](Cc2cc(C)nc(N)c2)[C@H]1C(=O)N(C)c1ccn(C)n1)c1cccc(Cl)c1 [Compound 1-89, (2S,3R)-3-((2-amino-6-methylpyridin-4-yl)methyl)-N2-(1-methyl-1H-pyrazol-3-yl)-N1-((R)-1-(3-chlorophenyl)propyl)-N2-methyl-4-oxoazetidine-1,2-dicarboxamide] |
| < 10 | 11 to 30 | > 30 | – | – | – | – | CC[C@@H](NC(=O)N1C(=O)[C@H](Cc2ccnc(N)c2)[C@H]1C(=O)N(C)c1ccn(C)n1)c1cccc(Cl)c1 [Compound 1-91, (2S,3R)-3-((2-aminopyridin-4-yl)methyl)-N2-(1-methyl-1H-pyrazol-3-yl)-N1-((R)-1-(3-chlorophenyl)propyl)-N2-methyl-4-oxoazetidine-1,2-dicarboxamide] |
| 11 to 30 | 11 to 30 | 11 to 30 | – | – | – | – | CC[C@@H](NC(=O)N1C(=O)[C@H](Cc2ccnc(N)c2)[C@H]1C(=O)N(C)c1cccs1)c1ccccc1 [Compound 1-10, (2S,3R)-3-((2-aminopyridin-4-yl)methyl)-N2-(thiophen-2-yl)-N1-((R)-1-phenylpropyl)-N2-methyl-4-oxoazetidine-1,2-dicarboxamide] |
| < 10 | 11 to 30 | > 30 | – | – | – | – | CC[C@@H](NC(=O)N1C(=O)[C@H](Cc2ccnc(N)c2)[C@H]1C(=O)N(C)c1nccn1C)c1ccccc1 [Compound 1-13, (2S,3R)-3-((2-aminopyridin-4-yl)methyl)-N2-(1-methyl-1H-imidazol-2-yl)-N1-((R)-1-phenylpropyl)-N2-methyl-4-oxoazetidine-1,2-dicarboxamide] |
| 11 to 30 | 31 to 50 | 11 to 30 | – | – | – | – | CC[C@@H](NC(=O)N1C(=O)[C@H](Cc2cc(C)nc(NC)c2)[C@H]1C(=O)N(C)c1nccn1C)c1ccccc1 [Compound 1-45, (2S,3R)-3-((2-methylamino-6-methylpyridin-4-yl)methyl)-N2-(1-methyl-1H-imidazol-2-yl)-N1-((R)-1-phenylpropyl)-N2-methyl-4-oxoazetidine-1,2-dicarboxamide] |
| < 10 | 31 to 50 | – | – | – | – | – | C[C@@H](NC(=O)N1C(=O)[C@H](Cc2ccnc(N)c2)[C@H]1C(=O)N(C)c1ccn(C)n1)C1CCCCC1 [Compound 1-50, (2S,3R)-3-((2-aminopyridin-4-yl)methyl)-N2-(1-methyl-1H-pyrazol-3-yl)-N1-((R)-1-cyclohexylethyl)-N2-methyl-4-oxoazetidine-1,2-dicarboxamide] |
| < 10 | < 10 | < 10 | – | – | – | – | CC[C@@H](NC(=O)N1C(=O)[C@H](Cc2ccnc(N)c2)[C@H]1C(=O)N(C)c1nccn1C)c1ccc(C)nc1 [Compound 1-81, (2S,3R)-3-((2-aminopyridin-4-yl)methyl)-N2-(1-methyl-1H-imidazol-2-yl)-N1-((R)-1-(6-methylpyridin-3-yl)propyl)-N2-methyl-4-oxoazetidine-1,2-dicarboxamide] |
| < 10 | 11 to 30 | – | – | – | – | – | CC[C@@H](NC(=O)N1C(=O)[C@H](Cc2ccnc(N)c2)[C@H]1C(=O)N(C)c1cn(C)cn1)c1ccccc1 [Compound 1-90, (2S,3R)-3-((2-aminopyridin-4-yl)methyl)-N2-(1-methyl-1H-imidazol-4-yl)-N1-((R)-1-phenylpropyl)-N2-methyl-4-oxoazetidine-1,2-dicarboxamide] |
| < 10 | 11 to 30 | – | – | – | – | – | CC[C@@H](NC(=O)N1C(=O)[C@H](Cc2cc(C)nc(N)c2)[C@H]1C(=O)N(C)c1ccnn1C)c1ccc(C)c(F)c1 [Compound 1-155, (2S,3R)-3-((2-amino-6-methylpyridin-4-yl)methyl)-N2-(1-methyl-1H-pyrazol-5-yl)-N1-((R)-1-(3-fluoro-4-methylphenyl)propyl)-N2-methyl-4-oxoazetidine-1,2-dicarboxamide] |
| < 10 | 31 to 50 | > 30 | – | – | – | – | CC[C@@H](NC(=O)N1C(=O)[C@H](Cc2ccnc(N)c2)[C@H]1C(=O)N(C)c1ccn(C)n1)c1ccccc1 [Compound 1-3, (2S,3R)-3-((2-aminopyridin-4-yl)methyl)-N2-(1-methyl-1H-pyrazol-3-yl)-N1-((R)-1-phenylpropyl)-N2-methyl-4-oxoazetidine-1,2-dicarboxamide] |
| 11 to 30 | 11 to 30 | – | – | – | – | – | CC[C@@H](NC(=O)N1C(=O)[C@H](Cc2cc(C)nc(NC)c2)[C@H]1C(=O)N(C)c1nccn1C)c1cccc(Cl)c1 [Compound 1-46, (2S,3R)-3-((2-methylamino-6-methylpyridin-4-yl)methyl)-N2-(1-methyl-1H-imidazol-2-yl)-N1-((R)-1-(3-chlorophenyl)propyl)-N2-methyl-4-oxoazetidine-1,2-dicarboxamide] |
| – | – | – | P (“P” indicates < 10 × 10^−6 cm/s) | Q (“Q” indicates 11-30 × 10^−6 cm/s) | N (“N” indicates > 240 min) | Z (“Z” indicates 50-90%) | (2S,3R)-3-((2-amino-6-methylpyridin-4-yl)methyl)-N2-(1-methyl-1H-imidazol-2-yl)-N1-((R)-1-(3-fluorophenyl)propyl)-N2-methyl-4-oxoazetidine-1,2-dicarboxamide [Compound 1-120] |
| 11 to 30 | 11 to 30 | – | – | – | – | – | CN(C(=O)[C@@H]1[C@@H](Cc2ccnc(N)c2)C(=O)N1C(=O)N[C@@H](C1CCCCC1)C(F)(F)F)c1ccn(C)n1 [Compound 1-32, (2S,3R)-3-((2-aminopyridin-4-yl)methyl)-N2-(1-methyl-1H-pyrazol-3-yl)-N1-((S)-1-cyclohexyl-2,2,2-trifluoroethyl)-N2-methyl-4-oxoazetidine-1,2-dicarboxamide] |
